Test results published in PubChem BioAssay AID540314 (Broad Institute, 2011).
Inconclusive results are not listed. The source made the active and inactive calls.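 The calls were made as follows: active = compounds whose fitted half-maximal potency is at most ten times their top valid tested dose, reducing viability; inconclusive = flat curve with 30 to 70% viability loss, or poor fit; inactive = the rest.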

Columns and labels:
[1] = system: BJeHLT fibroblasts viability, Alamar Blue fluorescence, 48 h; test: cytotoxicity toward BJeHLT engineered cells – cell-based, plate reader, dry powder, set 4, counter-screen for Ras selective lethality project, dose response (AID 540314)
[2] = as above; details: BJeHLT fibroblasts viability, Alamar Blue fluorescence, 48 h; at 48 µM (top of the series)

Structure (SMILES)	AC50 [1] [µM]	activity change, negative = less viable [2]
O=C(NCCNC(c1ccccc1)c1ccccc1)c1ccc([N+](=O)[O-])o1	4.66	
Cc1onc(C(=O)N2CCN(C(c3ccc(Cl)cc3)c3ccc(Cl)cc3)CC2)c1[N+](=O)[O-]	0.844	
Cc1onc(C(=O)N2CCN(C(c3ccccc3)c3ccccc3)CC2)c1[N+](=O)[O-]	7.25	
Cc1onc(C(=O)N2CCN(Cc3ccccc3)CC2)c1[N+](=O)[O-]		8.05% (inactive)
CCOc1ccccc1-n1c(C(C)N2CCN(C(=O)COc3ccc(Cl)cc3)CC2)nc2ccccc2c1=O (stereo not given)	4.19	
Cc1onc(C(=O)N2CCN(C(c3ccc(F)cc3)c3ccc(F)cc3)CC2)c1[N+](=O)[O-]	2.12	
COc1ccc(C(c2ccc(OC)cc2)N2CCN(C(=O)c3ccc([N+](=O)[O-])o3)CC2)cc1	6.87	
Cc1onc(C(=O)N2CCN(C(c3ccccc3)c3ccc(Cl)cc3)CC2)c1[N+](=O)[O-] (stereo not given)	2.04	
O=C(c1ccc([N+](=O)[O-])o1)N1CCN(C(c2ccc(F)cc2)c2ccc(F)cc2)CC1	14.8	
COC(=O)c1ccc([C@@H]2c3[nH]c4ccccc4c3C[C@@H](C(=O)OC)N2C(=O)CCl)cc1	1.57	
